Biological target: T1, RF3 (Escherichia coli, UniProt P0A7I4)
T1 construct: gene prfC; free RF3, N-terminal His-tag, pET30a, BL21(DE3), Ni-NTA and Resource Q
Test: competition titration against mantGDP, FRET
Type: binding
Settings: pH 7.5, 37 °C, 7 mM MgCl2; competition with purified RF3-mantGDP

T1 sequence (P0A7I4 2-529): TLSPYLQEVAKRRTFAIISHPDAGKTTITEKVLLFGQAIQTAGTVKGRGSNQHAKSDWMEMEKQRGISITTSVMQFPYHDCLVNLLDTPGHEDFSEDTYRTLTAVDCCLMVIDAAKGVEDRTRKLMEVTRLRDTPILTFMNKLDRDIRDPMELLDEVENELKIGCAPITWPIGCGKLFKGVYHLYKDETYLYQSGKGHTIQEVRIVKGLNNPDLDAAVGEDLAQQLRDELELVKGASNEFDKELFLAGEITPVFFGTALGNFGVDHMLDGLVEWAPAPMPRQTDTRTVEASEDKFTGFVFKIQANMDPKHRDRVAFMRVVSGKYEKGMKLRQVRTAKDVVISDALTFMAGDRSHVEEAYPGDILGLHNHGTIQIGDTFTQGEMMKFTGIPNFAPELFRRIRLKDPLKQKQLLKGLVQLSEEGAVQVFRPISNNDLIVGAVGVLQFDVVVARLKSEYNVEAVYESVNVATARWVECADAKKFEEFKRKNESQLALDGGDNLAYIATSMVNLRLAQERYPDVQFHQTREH

Structure (SMILES)	ratio of added nucleotide to mantGDP at half-saturation
Nc1nc2c(ncn2[C@@H]2O[C@H](COP(=O)(O)OP(=O)(O)CP(=O)(O)O)[C@@H](O)[C@H]2O)c(=O)[nH]1 [GDPCP]	60 fold
Nc1nc2c(ncn2[C@@H]2O[C@H](COP(=O)(O)OP(=O)(O)NP(=O)(O)O)[C@@H](O)[C@H]2O)c(=O)[nH]1 [GDPNP]	40 fold
Nc1nc2c(ncn2[C@@H]2O[C@H](COP(=O)(O)OP(=O)(O)O)[C@@H](O)[C@H]2O)c(=O)[nH]1 [GDP]	1 fold
Nc1nc2c(ncn2[C@@H]2O[C@H](COP(=O)(O)OP(=O)(O)OP(=O)(O)O)[C@@H](O)[C@H]2O)c(=O)[nH]1 [GTP]	3 fold

Source: paper PMC3919579, “Timing of GTP binding and hydrolysis by translation termination factor RF3” (Nucleic Acids Research, 2013)
